# Assay results reported in patent US20240228481A1, “NOVEL SULFONAMIDE SERIES OF QR2 INHIBITORS TO TACKLE OXIDATIVE STRESS AND COGNITIVE DECLINE” (CARMEL HAIFA UNIVERSITY ECONOMIC CORPORATION LTD., priority 2021, published 2024).
# pEC50: −log10 of the molar value. Where “and” joins values, the source holds several entries; their conditions need not be identical. Identical values can stand only once.
# Legend:
# QR2 [1] = molecular target: T1, QR2 (Homo sapiens, UniProt P16083); assay: Cellular thermal shift assay (CETSA) of QR2 in HEK293T cells; format: cell-based; parameters: endogenous in cells; host or cells: HEK293T
# T1 sequence (P16083 1-231): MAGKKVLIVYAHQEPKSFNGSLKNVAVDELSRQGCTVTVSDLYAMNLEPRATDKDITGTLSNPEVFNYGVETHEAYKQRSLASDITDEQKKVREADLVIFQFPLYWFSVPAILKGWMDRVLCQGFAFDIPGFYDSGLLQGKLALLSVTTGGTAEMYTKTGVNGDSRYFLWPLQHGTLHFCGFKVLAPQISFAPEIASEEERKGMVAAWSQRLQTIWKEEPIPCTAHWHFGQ
# Experimental: The CETSA assay was performed as described (Miettinen and Björklund, 2014) with some modifications. Briefly, HEK293T cells were trypsinized (Biological Industries), washed in PBS (Sigma-Aldrich), and then suspended in PBS containing protease inhibitor cocktail (Roche). The suspended cells were then divided into two Eppendorf tubes and were treated with either: a compound or DMSO (Sigma-Aldrich) for 1 h at 37° C. under shaking. Following treatment, each sample was divided into PCR tubes (100 μL/tube) and subjected to a temperature gradient (ranging from 63 to 80° C.) for 3 minutes. Cell lysates were obtained by 3-cycles of freeze-thaw using liquid nitrogen and a thermal block set to 25° C. Samples were then centrifuged at 15,000 rpm at 4° C. for 20 min and were subsequently analyzed by western blot targeting QR2 (1:100, Santa Cruz; sc-271665). The isothermal dose response fingerprint (ITDRF) experiments were done using a constant temperature of 73° C. Band intensities were normalized to the highest concentration and superoxide dismutase 1 (SOD1) levels (1:200, Santa Cruz; sc-17767). Analysis of the results were performed according to Jafari et al., (2014) using GraphPad Prism software.
# To establish direct target engagement, as well as cell membrane permeability, a cellular thermal shift assay (CETSA) was carried out (see methods), using the leading compounds YB-537, YB-800, and YB-808. Following 1 h preincubation with 5 μM of each of the compounds, or vehicle, thermal aggregation curves (Tagg) of QR2 expressed in HEK293T were measured in increasing temperatures. […] Based on the Tagg curves, the inventors selected 73° C. for isothermal dose-response fingerprint (IDTRF) experiments (FIG. 2B).
# HEK293T cells = assay: XTT cell viability assay; format: cell-based; details: 3 h incubation, 20 nM-20 μM
# Experimental: HEK293FT cells were cultured with penicillin-streptomycin antibiotics in Invitrogen DMEM (Thermo Fisher Scientific) with 10% fetal bovine serum and L-glutamine and grown to 80-90% confluence in 100 mm plates, while being passaged every 2-3 days. For the XTT assay (Biological Industries), cells were then collected, centrifuged, and resuspended in fresh minimum essential medium, and seeded at 50,000 cells/well in 96-well, poly-L-lysine-coated Nunc black, clear flat-bottomed plates (Thermo Fisher Scientific). The next day, the cells were treated with increasing doses of QR2 inhibitors or vehicle for 3 h, and the XTT assay was then carried out as according to the manufacturer's instructions.
# QR1 (NQO1) [2] = molecular target: T2, QR1 (NQO1) (Homo sapiens, UniProt P15559); assay: Selectivity assay with QR1 in place of QR2, absorbance readout; format: biochemical
# T2 construct: purchased Sigma-Aldrich
# Experimental: (§1) The enzymatic activity of QR2 (10 nM) was measured using menadione (both Sigma-Aldrich) as substrate and dihydrobenzylnicotamide (BNAH; Tocris) as co-substrate (Boutin et al., 2005). The reaction was performed in 50 mM Tris HCl, 150 mM NaCl 0.01% Tween-20 pH=8.5 (Sigma-Aldrich) at room temperature. Briefly, 3 μL of menadione alone (200 μM) or a mixture of menadione and QR2 (200 μM of menadione and 10 nM of QR2) were dispensed in 1536-well black Nunc plates (Thermo-Fisher) using a Multidrop™ Combi Reagent Dispenser (Thermo-Fisher) and pre-incubated with compounds for 10 min. BNAH (200 μM) was then added (3 μL) to the reaction using a BioNex Solutions BNX 1536 plate washer and the plates were incubated for another 10 min. […] The initial HTS was done with approximately 200,000 compounds at a single concentration of 5 μM. The chemical libraries used were Selleck Chemicals Bioactives, the Drug-like set from Enamine, HitFinder collection from Maybridge, Spectrum Collection from Microsource, Lopac from Sigma-Aldrich and the diversity sets from ChemDiv and ChemBridge. Initial “hit” compounds were defined as causing >30% reduction of enzyme activity. Compounds suspected to be fluorescent were re-assayed in an absorbance assay at 350 nm using the same reaction but in a higher volume (100 μL), in a transparent plate (Greiner Bio-One). “Hit” compounds resulting from both the fluorescence and absorbance assay were tested in a dose-response, and median inhibition concentration (IC50) values were determined. In parallel, the same dose response was used in a selectivity assay where QR2 enzyme was replaced by QR1 (also known as—NQO1, 10 nM; Sigma-Aldrich).
# (§2) In order to establish a varied, flexible and chemically amenable starting point from which to develop such inhibitors, the inventors ran a standardized QR2 assay (see methods) against ˜200,000 compounds, from a varied assortment of chemical libraries. […] Compounds that replicated the initial hit result were then assayed similarly, against NQO1, to evaluate compound specificity (FIG. 1B). From the HTS, a series of compounds containing a sulfonamide central linker, with an amine on one side and a heterocycle on the other, were identified and selected for SAR development (FIG. 1C).
# QR2 [3] = molecular target: T1, QR2; assay: QR2 enzymatic activity assay (menadione/BNAH), fluorescence readout; format: biochemical; parameters: purchased Sigma-Aldrich
# Experimental: (§3) The enzymatic activity of QR2 (10 nM) was measured using menadione (both Sigma-Aldrich) as substrate and dihydrobenzylnicotamide (BNAH; Tocris) as co-substrate (Boutin et al., 2005). The reaction was performed in 50 mM Tris HCl, 150 mM NaCl 0.01% Tween-20 pH=8.5 (Sigma-Aldrich) at room temperature. Briefly, 3 μL of menadione alone (200 μM) or a mixture of menadione and QR2 (200 μM of menadione and 10 nM of QR2) were dispensed in 1536-well black Nunc plates (Thermo-Fisher) using a Multidrop™ Combi Reagent Dispenser (Thermo-Fisher) and pre-incubated with compounds for 10 min. BNAH (200 μM) was then added (3 μL) to the reaction using a BioNex Solutions BNX 1536 plate washer and the plates were incubated for another 10 min. […] The initial HTS was done with approximately 200,000 compounds at a single concentration of 5 μM. The chemical libraries used were Selleck Chemicals Bioactives, the Drug-like set from Enamine, HitFinder collection from Maybridge, Spectrum Collection from Microsource, Lopac from Sigma-Aldrich and the diversity sets from ChemDiv and ChemBridge. Initial “hit” compounds were defined as causing >30% reduction of enzyme activity. […] “Hit” compounds resulting from both the fluorescence and absorbance assay were tested in a dose-response, and median inhibition concentration (IC50) values were determined. In parallel, the same dose response was used in a selectivity assay where QR2 enzyme was replaced by QR1 (also known as—NQO1, 10 nM; Sigma-Aldrich).
# (§4) In order to establish a varied, flexible and chemically amenable starting point from which to develop such inhibitors, the inventors ran a standardized QR2 assay (see methods) against ˜200,000 compounds, from a varied assortment of chemical libraries.
# QR1 (NQO1) [4] = molecular target: T2, QR1 (NQO1); assay: Selectivity assay with QR1 in place of QR2, fluorescence readout; format: biochemical
# Experimental: as §1, §2
# THLE-2 cells = assay: Cell toxicity assay (ATP depletion, CellTiter Glo); details: 72 h incubation, CellTiter Glo
# [5] = Cell toxicity assay (ATP depletion, CellTiter Glo); details: human
# QR2 [6] = molecular target: T1, QR2; assay: QR2 enzymatic activity assay (menadione/BNAH), absorbance readout at 350 nm; format: biochemical; parameters: purchased Sigma-Aldrich
# Experimental: as §3, §4
# in vitro = details: human
# T2 sequence (P15559 whole entry): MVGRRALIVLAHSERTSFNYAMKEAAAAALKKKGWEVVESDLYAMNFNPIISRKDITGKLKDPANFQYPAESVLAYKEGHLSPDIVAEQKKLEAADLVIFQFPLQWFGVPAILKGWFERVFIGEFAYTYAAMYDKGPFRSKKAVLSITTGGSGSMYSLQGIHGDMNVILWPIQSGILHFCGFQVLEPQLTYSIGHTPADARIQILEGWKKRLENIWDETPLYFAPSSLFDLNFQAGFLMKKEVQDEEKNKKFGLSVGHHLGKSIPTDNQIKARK
Compound,"thermal stability of QR2 (thermal aggregation curve) versus vehicle (QR2 [1]; 5 μM, 1 h preincubation)","pEC50 (QR2 [1]; CETSA at 73° C., read-out: EC50 of QR2 stabilization (isothermal dose-response fingerprint))",toxicity in XTT assay (HEK293T cells),IC50 (QR1 (NQO1) [2]),IC50 (QR2 [3]),IC50 (QR1 (NQO1) [4]),median lethal dose (LD50) in THLE cells (THLE-2 cells),IC50 at 72 h [5],IC50 (QR2 [6]),IC50 at 72 h (in vitro)
Cc1ccc(-c2cn3cccc(C)c3n2)cc1S(=O)(=O)N1CCCC1 [YB-808],shifts of thermal stability,7.89,no toxicity,> 9.99 µM,0.01 µM,> 9.99 µM,59.7 µM and 59.704 µM,59.7 µM,–,–
Cc1ccn2cc(-c3cccc(S(=O)(=O)N4CCCC4)c3)nc2c1 [PCM-0124535],–,–,–,> 9.99 µM,0.59 µM,> 9.99 µM,–,–,0.16 µM,88.9 µM
Cc1cc(-c2ccc(C)c(S(=O)(=O)N3CCC(C)CC3)c2)on1 [PCM-0212387],–,–,–,> 9.99 µM,2.89 µM,> 9.99 µM,–,–,1.83 µM,50 µM
Cc1cccn2cc(-c3cccc(S(=O)(=O)N4CCN(C(=O)c5ccco5)CC4)c3)nc12 [PCM-0213792],–,–,–,4.22 µM,0.01 µM,3.33 µM,–,–,0.01 µM,64.1 µM
